These results are taken from publication PMC7253423, “Quassinoid analogs with enhanced efficacy for treatment of hematologic malignancies target the PI3Kγ isoform” (Communications Biology, 2020).

Several values for one entry are separate records, joined by “and”; a condition that tells them apart may be missing. Equal values may be shown once. Read-outs that look alike come from different tables or passages of the source.

Data set [1] can be described thus: Body weight of xenograft mice. As to conditions: individual mice, Fig S3i, in g (unit assumed). It counts as in vivo, NOD/SCID mice. The protocol:
(§1) Six-week-old male NOD.CB17-Prkdc^scid/J (NOD/SCID) mice (Jackson Labs, Bar Harbor, ME, USA) were used as the human-in-mouse xeno-transplantation model. MOLM14 cells (1 × 10^7 cells) were injected into the subcutaneous space on the left flank of the mice. […] Body weight and tumor size were monitored before every injection. After treatment for 2 weeks, the mice were euthanized by CO2 inhalation and the tumors were carefully excised. The tumor volume (mm^3) was measured and calculated using the formula (a × b × b)/2 (a, the largest diameter of two measurements; b, the smallest diameter of two measurements).

The subject of a further data set is Raji cells. In words: Cell viability assay (CellTiter-Glo luminescence). As to conditions: Homo sapiens; for viability at 0.00244141 µM: read-out: relative cell viability (Fig 6f), replicates, Raji, Con. 0.00244141 μM, fraction of 0 μM control; for viability at 0.15625 µM: read-out: relative cell viability (Fig 6f), replicates, Raji, Con. 0.15625 μM, fraction of 0 μM control. It counts as cell-based, human. The protocol: (§2) 5000 cells as indicated were cultured in 96-well plate with 100 μl of media. […] After treatment, the cells were incubated with 100 μl buffer for 10 min at room temperature following the instructions of CellTiter-Glo kit (Promega, Madison, WI). Luminescence was detected using a multi-mode reader Cytation 5 (BioTek, Winooski, VT). […] Two independent experiments done in duplicates were performed.
Background: In ATP-based viability assays light output follows the ATP content of the culture.

Data set [2] has as its system hematologic malignancies derived cell lines. In words: Cell viability assay, panel of hematologic malignancy derived cell lines. As to conditions: 100 nM, 72 h, lymphoma, leukemia and multiple myeloma cell lines (13 cell lines for analogs). The class given is cell-based, human. The protocol:
5000 cells as indicated were cultured in 96-well plate with 100 μl of media. On the next day, Brusatol or associated analogs were added once to the cells without media change. After treatment, the cells were incubated with 100 μl buffer for 10 min at room temperature following the instructions of CellTiter-Glo kit (Promega, Madison, WI). Luminescence was detected using a multi-mode reader Cytation 5 (BioTek, Winooski, VT). […] Two independent experiments done in duplicates were performed.

The test system of the next data set is MOLM14 xenografts. In words: In vivo tumorigenic assay using xenografts, tumor size. The arrangement: species or system NOD/SCID mice. To be noted: MOLM14 xenograft. The protocol:
as §1

Another data set concerns PBMC. In words: Cytotoxicity, cell viability assay in normal cells. The class given is cell-based, human. As to conditions: Fig 5c.
Source text: (§3) Human peripheral blood mononuclear cells (PBMCs), normal T-cells and B-cells were provided by the University of Pennsylvania Human Immunology Core (HIC), and Patient-derived xenografts (PDXs) were obtained from Fox Chase Cancer Center (FCCC). These samples were from different unidentified and healthy donors with written, informed consent. All the procedures were approved by the Institutional Review Board (IRB) and conducted according to the declarations of Helsinki protocols.
as §2

For the next data set, the system named is SU-DHL-4 cells. In words: Cell viability assay (CellTiter-Glo luminescence). To be noted: Homo sapiens, SU-DHL-4, 144 h; for viability at 0.15625 µM: read-out: relative cell viability (Fig 6d), replicates, SU-DHL-4, Con. 0.15625 μM, fraction of 0 μM control; for viability at 0.625 µM: read-out: relative cell viability (Fig 6d), replicates, SU-DHL-4, Con. 0.625 μM, fraction of 0 μM control; for viability at 10 µM: read-out: relative cell viability (Fig 6d), replicates, SU-DHL-4, Con. 10 μM, fraction of 0 μM control. The class given is cell-based, human. The protocol: as §2

Data set [3] can be described thus: Cytotoxicity, cell viability assay in normal cells. The class given is cell-based. To be noted: human, fraction of 0 μM control; for viability at 0.000244141 μM: Con. 0.000244141 μM; for viability at 0.015625 μM: Con. 0.015625 μM; for viability at 0.0625 μM: Con. 0.0625 μM; for viability at 1 μM: Con. 1 μM; for viability at […]: Con. […]; for viability at 0.00390625 μM: Con. 0.00390625 μM.
Source text: as §3, §2

A further data set relates to MOLM14 cells. In words: Cell viability assay (CellTiter-Glo luminescence). The class given is cell-based. To be noted: Homo sapiens; for viability at 0.625 µM: MOLM-14, read-out: relative cell viability (Fig 6e), replicates, MOLM14, Con. 0.625 μM, fraction of 0 μM control; for viability at […]: MOLM-14, read-out: relative cell viability (Fig 6e), replicates, MOLM14, Con. […], fraction of 0 μM control. The protocol:
as §2

A short description of data set [4]: Cytotoxicity, cell viability assay in normal cells. It counts as cell-based, human. To be noted: human, PBMC, fraction of 0 μM control, read-out: relative cell viability (Fig 6a), replicates; for viability at 0.00390625 μM: Con. 0.00390625 μM; for viability at 0.015625 μM: Con. 0.015625 μM; for viability at 0.0625 μM: Con. 0.0625 μM; for viability at 1 μM: Con. 1 μM.
Source text: as §3, §2

The mark [5] stands for this setting: normal B-cells from healthy donors, B-cells, read-out: relative cell viability (Fig 6c), replicates.
Where [6] appears, read: normal T-cells from healthy donors, T-cells, read-out: relative cell viability (Fig 6b), replicates.

Consider `COC(=O)C12OCC34C(CC5C(C)=C(OC(=O)C(N)Cc6ccccc6)C(=O)CC5(C)C3C(O)C1O)OC(=O)C(OC(=O)C=C(C)C)C24` (stereo not shown) [#14], for which the Body weight is 25.66 and 26.32 and 25.88 and 25.26 and 25.69 in data set [1] (0d); 26.84 and 26.83 and 25.73 in data set [1] (2d); 30.22 and 27.96 in data set [1] (4d); 31.1 and 27.6 in [1] (6d); 31.54 and 29.03 and 29.06 and 28.16 and 27.82 and 27.45 in data set [1] (8d); 32.14 and 29.64 and 29.88 and 28.65 and 28.04 in [1] (10d). In [1] (12d), the Body weight was 33.33 and 31.09 and 31.73 and 30.06 and 30.08. The IC50 (in general, the point on the concentration scale where inhibition reaches its midpoint) in the data set on Raji cells (analogs, 72 h, Fig. 5c, read-out: IC50) was determined as 39.2 nM. In addition, in data set [2], the “inhibition of cell viability in panel of cell lines” value was “significantly inhibit”. The “tumor size (Fig 5d&5e), individual mice” value was 146.154 and 92.4556 and 61.5288 and 118.617 and 111.079 and 97.6091 in the data set on MOLM14 xenografts (0d); 155.286 and 83.3599 and 78.5598 and 123.615 and 132.099 and 148.619 in the data set on MOLM14 xenografts (2d); 205.624 and 120.823 and 83.03 and 205.911 and 121.618 and 141.386 in the data set on MOLM14 xenografts (4d); 215.948 and 214.154 and 405.903 and 288.793 and 65.298 and 81.0923 in the data set on MOLM14 xenografts (6d); 654.828 and 372.84 and 268.332 and 549.466 and 314.977 and 266.348 in the data set with MOLM14 xenografts (8d); 1094.41 and 794.074 and 511.007 and 817.839 and 517.393 and 583.109 in the data set on MOLM14 xenografts (10d). Further, the “tumor size (Fig 5d&5e), individual mice” value in the data set on MOLM14 xenografts (12d) is 1848.1 and 1147.5 and 978.929 and 1531.82 and 970.42 and 1008.11. For the same compound, the “Cell viability, raw luminescence reading” value is 16702 and 18584 in the data set on PBMC (Con. 0.01 μM); 14138 and 13170 with PBMC (Con. 0.039 μM); 9796 and 9988 with PBMC (Con. 0.156 μM); 7942 and 8235 with PBMC (Con. 0.625 μM); 10547 and 15443 in the data set on PBMC (Con. 10 μM).
As for `C[C@H](NC(=O)c1c(N)nn2cccnc12)c1cc2cccc(C#Cc3cnn(C)c3)c2c(=O)n1-c1ccccc1` [IPI-549], the viability (as a rule, a read-out of living cells in per cent, often relative to untreated cells) at 0.00244141 µM turned out to be 94.9% in the data set with SU-DHL-4 cells (read-out: relative cell viability (Fig 6d), replicates, SU-DHL-4, Con. 0.00244141 μM, fraction of 0 μM control); 95.4% in the data set with Raji cells; 121% in the data set on MOLM14 cells (MOLM-14, read-out: relative cell viability (Fig 6e), replicates, MOLM14, Con. 0.00244141 μM, fraction of 0 μM control). The viability at 0.15625 µM was determined as 115% in the data set on SU-DHL-4 cells and 113% with Raji cells. The viability at 0.625 µM with SU-DHL-4 cells was 94.2%; in the data set on Raji cells (read-out: relative cell viability (Fig 6f), replicates, Raji, Con. 0.625 μM, fraction of 0 μM control) it was 122%; in the data set with MOLM14 cells, 93.4%. Besides, the viability at 10 µM with SU-DHL-4 cells is 30.8%; with Raji cells (read-out: relative cell viability (Fig 6f), replicates, Raji, Con. 10 μM, fraction of 0 μM control) it was 55%; in the data set on MOLM14 cells (MOLM-14, read-out: relative cell viability (Fig 6e), replicates, MOLM14, Con. 10 μM, fraction of 0 μM control) it was 23.9%. Also, the viability at 0.0390625 µM in the data set on Raji cells (read-out: relative cell viability (Fig 6f), replicates, Raji, Con. 0.0390625 μM, fraction of 0 μM control) came to 108%. For the same compound, the viability at […] in the data set with Raji cells (read-out: relative cell viability (Fig 6f), replicates, Raji, Con. […], fraction of 0 μM control) came out at 98.4%; in data set [3] (setting [5]) it was 122%; in data set [3] (setting [6]), 109%; in the data set on MOLM14 cells, 119%. Moreover, the results for the viability at 0.000244141 μM in data set [3] (setting [5]) and in [3] (setting [6]) were 107% and 108%, respectively. For the same compound, the viability at 0.015625 μM in [3] (setting [5]) was 118%; in data set [3] (setting [6]), 109%; in data set [4], 104%. Besides, the viability at 0.0625 μM stood at 105% in data set [3] (setting [5]), 83.1% in [3] (setting [6]) and 102% in data set [4]. Further, the viability at 1 μM was 93.7% in data set [3] (setting [5]), 115% in [3] (setting [6]) and 99.1% in [4]. For the same compound, the viability at 0.00390625 μM in data set [3] (setting [6]) came to 107%; in data set [4], 98.8%.
`CC[C@H](Nc1ncnc2[nH]cnc12)c1nc2cccc(F)c2c(=O)n1-c1ccccc1` [Idelalisib]: in the data set with SU-DHL-4 cells (read-out: relative cell viability (Fig 6d), replicates, SU-DHL-4, Con. 0.0390625 μM, fraction of 0 μM control), the viability at 0.0390625 µM came out at 96.2%. For the same compound, in the data set on SU-DHL-4 cells, the viability at 0.15625 µM was determined as 99.8%, the viability at 0.625 µM was found to be 87.1% and the viability at 10 µM was 33.1%. For the same compound, in the data set on Raji cells, the viability at 0.00244141 µM worked out at 111% and the viability at 0.15625 µM worked out at 114%. In data set [3] (setting [5]), the viability at 0.000244141 μM came out at 101%, the viability at 0.00390625 μM turned out to be 103%, the viability at 0.015625 μM was determined as 103% and the viability at 1 μM stood at 81.2%. Besides, in data set [3] (setting [6]), the viability at 0.000244141 μM amounted to 105%, the viability at 0.00390625 μM amounted to 102%, the viability at 0.015625 μM came out at 98.9% and the viability at 1 μM stood at 98.7%. Moreover, in the data set with MOLM14 cells, the viability at 0.625 µM amounted to 113% and the viability at […] stood at 120%. Moreover, in [4], the viability at 0.00390625 μM stood at 99.7%, the viability at 0.015625 μM worked out at 111%, the viability at 0.0625 μM is 83.8% and the viability at 1 μM is 89.1%.
